Experiment [1] deals with T1, ULK1 (Homo sapiens, UniProt O75385).
T1 construct: purchased Promega V3521
T1 sequence (O75385 1-649 limits assumed): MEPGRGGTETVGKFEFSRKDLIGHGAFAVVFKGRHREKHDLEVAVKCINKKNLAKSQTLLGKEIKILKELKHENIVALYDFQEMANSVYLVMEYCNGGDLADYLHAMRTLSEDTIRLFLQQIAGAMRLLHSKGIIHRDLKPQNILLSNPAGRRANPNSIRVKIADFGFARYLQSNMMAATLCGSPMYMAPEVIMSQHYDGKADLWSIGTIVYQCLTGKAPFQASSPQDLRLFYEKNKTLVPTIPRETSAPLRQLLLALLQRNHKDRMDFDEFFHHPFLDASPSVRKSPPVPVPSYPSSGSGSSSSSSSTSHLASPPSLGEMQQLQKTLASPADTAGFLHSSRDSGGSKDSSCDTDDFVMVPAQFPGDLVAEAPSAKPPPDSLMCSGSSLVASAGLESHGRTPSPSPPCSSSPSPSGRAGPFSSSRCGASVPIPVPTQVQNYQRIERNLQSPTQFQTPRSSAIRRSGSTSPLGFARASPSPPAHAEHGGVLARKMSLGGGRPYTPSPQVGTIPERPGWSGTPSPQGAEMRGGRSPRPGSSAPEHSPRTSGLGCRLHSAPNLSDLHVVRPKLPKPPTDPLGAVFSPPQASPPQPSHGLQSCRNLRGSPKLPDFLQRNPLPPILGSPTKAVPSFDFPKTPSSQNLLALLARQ
Kind of experiment: Inhibition of ULK1 protein activity (ADP-Glo method). Type of experiment: biochemical. Conditions: ULK1 enzyme, ATP and MBP substrate, 60 min room temperature. How it is done: In this experiment, the inhibitory effect of a compound on the phosphorylation function of ULK1 was detected by ADP-Glo method. The inhibitory effect of the compound of the present disclosure on the ULK1 target was evaluated based on IC50.
Compound formulation: Using an ECHO (Beckman, ECHO650), the compound was serially diluted 3-fold in DMSO in a 384-well plate (PE, 6007290). A total of 10 concentration points were set, with the maximum concentration of the compound being 10 μM, and 50 nL per well. Positive control wells and negative control wells were added with 50 nL DMSO, respectively.
Reaction process: A 32 nM of ULK1 (Promega, V3521) solution was formulated, and 2.5 μL/well was transferred to the compound test wells and the negative control wells (NC). 2.5 μL/well of 1× Assay buffer was added to the positive control wells (PC). A mixed solution of 100 μM of ATP and 1.86 μM of MBP was formulated, and 2.5 μL/well was transferred to the reaction plate. After centrifugation, the reaction was initiated and incubated at room temperature for 60 min. After the reaction was completed, 5 μL/well of ADP-Glo Reagent (Promega, V9102) was added to the reaction plate. After centrifugation, the reaction was incubated at room temperature for 40 minutes. Finally, 10 μL/well of Kinase Detection Buffer was added, followed by centrifugation and incubation at room temperature for 30 min. The chemiluminescence value was read using Envision (PE, Envision2105).
Assay buffer: a reaction buffer; and Kinase Detection buffer: a detection buffer, both were taken from the ADP-Glodetection kit, purchased from Promega, model V9102. 3. Data analysis
The inhibition ratio of a compound on ULK1 activity was calculated using the following formula:
Inhibition ratio=(sample signal value−negative control signal value)/(positive control signal value−negative control signal value)×100%. The dose-effect curve was fitted using the log(inhibitor) vs. response -Variable slope of the analysis software GraphPad Prism 8, thereby affording the IC50 value of each compound for enzyme activity.

Experiment [2] relates to ATG13 phosphorylation level in MIA PaCa-2 cells. Briefly: Inhibition of ATG13 phosphorylation level in MIA PaCa-2 cells (pATG13 ELISA). Type of experiment: cell-based. The note with it: Homo sapiens, Torin1 100 nM, 24 h incubation, Phospho-Atg13 (ser355). How it is done:
The inhibitory effect of the compound of the present disclosure on ULK1 was evaluated by testing the inhibitory effect of the compound of the present disclosure on ATG13 phosphorylation level in MIA PaCa-2 cells.
MIA PaCa-2 cells (ATCC, CRM-CRL-1420) were cultured in a complete medium, namely, a DMEM medium (Gibco, 11965-092) containing 10% fetal bovine serum (Corning, 35-081-CV), 2.5% horse serum (Gibco, 16050-122) and 1% double antibody (Gibco, 15140-122). The experiments were performed according to the requirements of the kit (Cell Signaling Technology, 17208C).
Cell plating: MIA PaCa-2 at 80% growth confluence were digested, diluted with the complete medium, and added to a 96-well cell culture plate (Costar, 3596) at 20,000 cells per well, with a volume of 90 μL.
Compound incubation: 5 μL of Torin1 and 5 μL of a serially diluted compound were added to each well so that the highest concentration of the compound in the reaction system was 10 μM. 5-fold serial dilution with 8 concentrations was performed, and the final concentration of Torin1 was 100 nM. The DMSO content in the system was 0.1%. The reaction plate was placed in an incubator at 37° C. in 5% CO2, and was incubated for 24 h. 10 μL of Torin1 was added to the negative control wells (NC) to a final concentration of 100 nM, with a DMSO content of 0.1%.
Reaction detection: After the incubation was completed, the cell plate was washed with a pre-cooled DPBS (Corning, 21-031-CVC) to wash away the compound and medium. 50 μL of pre-cooled cell lysis solution was added to each well, incubated on ice for 10 min. The cell plate was centrifuged, and the supernatant was transferred to an ELISA reaction plate. Simultaneously, 50 μL of Phospho-Atg13 (ser355) rabbit detection antibody was added, followed by incubation at room temperature under shaking for 60 min. After the incubation was completed, the reaction plate was washed with a washing solution for 4 times. 100 μL of TMB substrate was added for color development reaction, followed by incubation under shaded conditions with shaking for 15 min. Finally, 100 μL of stop solution was added to each well. The reaction was terminated by shaking for 10 s, and the absorbance value at 450 nm and 560 nm were collected within 10 min using Envision (Perkin Elmer, EnVision 2105).
The inhibition ratio was calculated by subtracting the absorbance value at […] from the absorbance value at 450 nm for each well. The inhibition ratio formula is as follows: inhibition ratio=(sample signal value−negative control signal value)/(positive control signal value -negative control signal value)×100%.
The dose-effect curve was fitted using the log (inhibitor) vs. response -Variable slope of Graphpad Prism8, thereby affording the IC50 value of each compound for inhibiting ATG13 phosphorylation level.
A general note: In an ELISA, binding on a coated surface is turned into a signal by an enzyme label.

The test system of experiment [3] is HEK293 GFP-LC3 stably transfected cells. Briefly: Inhibition of autophagy level in HEK293 GFP-LC3 stably transfected cells (autophagic flux). It counts as cell-based. Conditions: Homo sapiens, Torin1 100 nM, 24 h, GFP fluorescence. On the procedure: The inhibitory effect of the compound of the present disclosure on intracellular autophagy was evaluated by testing the impact of the compound of the present disclosure on the fluorescence intensity of HEK293 GFP-LC3 stably transfected cells.
HEK293 GFP-LC3 stably transfected cells (HEK293, ATCC, CRL-1573) were cultured in a complete medium, namely, a DMEM medium (Gibco, 11965-092) containing 10% fetal bovine serum (Corning, 35-081-CV), 1% double antibody (Gibco, 15140-122) and 1 μg/mL of Puromycin (Invitrogen-A1113803).
Cell plating: HEK293 GFP-LC3 stably transfected cells at 80% growth confluence were digested, diluted with a medium free of Puromycin, and added to a 96-well cell culture plate (Geriner, 655090) at 12,000 cells per well, with a volume of 90 μL.
Compound incubation: 5 μL of Torin1 and 5 μL of a serially diluted compound were added to each well so that the highest concentration of the compound in the reaction system was 10 μM. 3-fold serial dilution with 8 concentrations was performed, and the final concentration of Torin1 was 100 nM. The DMSO content in the system was 0.1%. The positive control wells (PC) contain DMSO at a final concentration of 0.1%, and the negative control wells (NC) contain 100 nM of Torin1 with 0.1% of DMSO. The reaction plate was placed in an incubator at 37° C. in 5% CO2, and was incubated for 24 h.
Cell staining and fixation: The cell plate was taken out, and 10 μL of Hochest33342 nuclear staining reagent (Thermo, H1399) was added to each well, followed by incubation at 37° C. in 5% CO2 for 30 min. After the incubation was completed, the cell supernatant was discarded, and 100 μL of pre-cooled 4% paraformaldehyde was added to each well to fix the cells for 15 min. Then, the fixative was discarded, and 100 μL of PBS was added to each well. Images were captured for analysis using a high-content cell imaging analyzer (PE, Operetta CLS), and GFP fluorescence signals were collected for data processing.
The average GFP fluorescence signal intensity in the reaction wells was collected for the calculation of the inhibition ratio:
The dose-effect curve was fitted using the log(inhibitor) vs. response -Variable slope of Graphpad Prism8, thereby affording the IC50 value of each compound for inhibiting autophagy level in HEK293 GFP-LC3 stably transfected cells.

A value given as a limit tells only on which side of the number the result lay.

Take `CN1CCN(c2ccc(Nc3ncc(C(F)(F)F)c(OCCCN4CCCCC4=O)n3)c(C3CC3)c2)CC1` [Example 1]: the values for the half-maximal inhibitory concentration (IC50) in experiment [1], in experiment [2] and in experiment [3] were below 100 nM, 100 to 1000 nM and 100 to 1000 nM, respectively.

`CN1CCN(c2ccc(Nc3ncc(C(F)(F)F)c(N4CCN(C)C(=O)C4)n3)c(C3CC3)c2)CC1` [Example 5]: the results for the 50% inhibitory concentration (IC50) in experiment [1], in experiment [2] and in experiment [3] were below 100 nM, above 1000 nM and above 1000 nM, respectively.

`CN1CCN(c2ccc(Nc3ncc(C(F)(F)F)c(N4CCC(n5cccn5)CC4)n3)c(C3CC3)c2)CC1` [Example 14]: the results for the 50% inhibitory concentration (IC50) in experiment [1], in experiment [2] and in experiment [3] were below 100 nM, below 100 nM and above 1000 nM, respectively.

Turning to `CN1CCc2cc(Nc3ncc(C(F)(F)F)c(N4CCN(C)C(=O)C4)n3)ccc2C1` [Example 15], the half-maximal inhibitory concentration (IC50) in experiment [1] was below 100 nM; in experiment [2], 100 to 1000 nM; in experiment [3] it was 100 to 1000 nM.

Turning to `CN1CCN(c2ccc(Nc3ncc(C(F)(F)F)c(N4CCC5(CCN(C)C5)CC4)n3)c(C3CC3)c2)CC1` [Example 19], the results for the half-maximal inhibitory concentration (IC50) in experiment [1], in experiment [2] and in experiment [3] were below 100 nM, above 1000 nM and 100 to 1000 nM, respectively.

For `CN1CCN(c2ccc(Nc3ncc(C(F)(F)F)c(NC4CCN(C(=O)C5CCC5)CC4)n3)c(C3CC3)c2)CC1` [Example 20], the results for the IC50 in experiment [1], in experiment [2] and in experiment [3] were below 100 nM, above 1000 nM and above 1000 nM, respectively.

In the case of `CN1CCN(c2ccc(Nc3ncc(C(F)(F)F)c(N4CC5(CN(C)C5)C4)n3)c(C3CC3)c2)CC1` [Example 24], the IC50 in experiment [1] was below 100 nM; in experiment [2], 100 to 1000 nM; in experiment [3] it was 100 to 1000 nM.

As to `CN1CCN(c2ccc(Nc3ncc(C(F)(F)F)c(N4CCC5(CCN(C)C5)C4)n3)c(C3CC3)c2)CC1` (stereo not drawn) [Example 26], the concentration for half-maximal inhibition (IC50) in experiment [1] is below 100 nM; in experiment [2] it was 100 to 1000 nM; in experiment [3], above 1000 nM.

Consider `CN1CCN(c2ccc(Nc3ncc(C(F)(F)F)c(OCCCn4cccn4)n3)c(C3CC3)c2)CC1` [Example 29], for which the IC50 in experiment [1] is below 100 nM; in experiment [2], 100 to 1000 nM; in experiment [3] it was 100 to 1000 nM.

Take `CN1CCN(c2ccc(Nc3ncc(C(F)(F)F)c(NCCCn4cccn4)n3)c(C3CC3)c2)CC1` [Example 30]: the IC50 was below 100 nM in experiment [1], above 1000 nM in experiment [2] and above 1000 nM in experiment [3].

Regarding `CN1CCN(c2ccc(Nc3ncc(C(F)(F)F)c(N[C@H]4CC[C@@H](n5cccn5)CC4)n3)c(C3CC3)c2)CC1` [Example 32], the 50% inhibitory concentration (IC50) in experiment [1] was below 100 nM; in experiment [2], 100 to 1000 nM; in experiment [3] it was above 1000 nM.

For `CN1Cc2cc(Nc3ncc(C(F)(F)F)c(OCCCN4CCCCC4=O)n3)ccc2C2(CC2)C1` [Example 49], the half-maximal inhibitory concentration (IC50) in experiment [1], in experiment [2] and in experiment [3] was below 100 nM in each case.

Turning to `CN1CCN(c2ccc(Nc3ncc(C(F)(F)F)c(N4CCC5(CCN(C)CC5)CC4)n3)c(C3CC3)c2)CC1` [Example 51], the IC50 in experiment [1] was below 100 nM; in experiment [2], above 1000 nM; in experiment [3] it was 100 to 1000 nM.

Regarding `CN1CCN(c2ccc(Nc3ncc(C(F)(F)F)c(N4CCC5(CCN(C)CC5)C4)n3)c(C3CC3)c2)CC1` [Example 53], the half-inhibitory concentration (IC50) was below 100 nM in experiment [1], 100 to 1000 nM in experiment [2] and above 1000 nM in experiment [3].

The IC50 is the concentration needed to halve the response being measured.

(Values after patent publication US20260274819A1, “ULK1 INHIBITOR, PREPARATION METHOD THEREFOR AND USE THEREOF” (DOVETREE MEDICINES UNUS, INC., priority 2023, published 2026).)
